The values below come from the supplement of paper PMC10627819.

Assay in all cases: Bliss interaction score (quartile over a dose matrix) (fitness difference); higher = more antagonism (negative = synergy)
One assay deals with S. aureus DSM 20231. Summed up: (§1)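 Each OD595 reading at entry into stationary phase was scaled to the robust mean of the untreated wells on its plate, with a ceiling of 1. These ratios define fitness, and single-drug fitness was inferred from combinations. The Bliss score compares observed fitness with the product-based expectation and is reported as quartiles across all replicate types, technical, biological and donor/recipient.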

For a further assay, the system named is B. subtilis 168. The method in brief: as §1
The next assay relates to S. aureus Newman. Summed up: as §1
A further assay concerns S. pneumoniae D39V. Summed up:
as §1
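Further: first quartile when negative (synergy) and third quartile when positive (antagonism).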

In the case of `CN(C)[C@@H]1C(O)=C(C(N)=O)C(=O)[C@@]2(O)C(O)=C3C(=O)c4c(O)ccc(Cl)c4[C@@](C)(O)[C@H]3C[C@@H]12` [Clortetracycline] + C[C@H]1c2cccc(O)c2C(=O)C2=C(O)[C@]3(O)C(=O)C(C(N)=O)=C(O)[C@@H](N(C)C)[C@@H]3[C@@H](O)[C@@H]21 [Doxycycline], the Bliss interaction score is -0.0625 in the assay with S. aureus DSM 20231, -0.0687 in the assay on B. subtilis 168, -0.0257 with S. aureus Newman and -0.0483 in the assay with S. pneumoniae D39V.
For `CN(C)[C@@H]1C(O)=C(C(N)=O)C(=O)[C@@]2(O)C(O)=C3C(=O)c4c(O)ccc(Cl)c4[C@@](C)(O)[C@H]3C[C@@H]12` [Clortetracycline] + C[n+]1ccc(-c2cc[n+](C)cc2)cc1 [Paraquat] the same measures were 0.0363, 0.0974, -0.0418 and -0.026.
As for `CN(C)[C@@H]1C(O)=C(C(N)=O)C(=O)[C@@]2(O)C(O)=C3C(=O)c4c(O)ccc(Cl)c4[C@@](C)(O)[C@H]3C[C@@H]12` [Clortetracycline] + Cc1cc(NS(=O)(=O)c2ccc(N)cc2)no1 [Sulfamethoxazol], the Bliss interaction score in the assay with S. aureus DSM 20231 is -0.058; in the assay on B. subtilis 168, 0.0702; in the assay with S. aureus Newman, 0.0566; with S. pneumoniae D39V, -0.0455.
For `CN(C)[C@@H]1C(O)=C(C(N)=O)C(=O)[C@@]2(O)C(O)=C3C(=O)c4c(O)ccc(Cl)c4[C@@](C)(O)[C@H]3C[C@@H]12` [Clortetracycline] + Cc1ncc([N+](=O)[O-])n1CCO [Metronidazole] the same measures were 0.0551, 0.141, 0.0714 and 0.104.
For `CN(C)[C@@H]1C(O)=C(C(N)=O)C(=O)[C@@]2(O)C(O)=C3C(=O)c4c(O)ccc(Cl)c4[C@@](C)(O)[C@H]3C[C@@H]12` [Clortetracycline] + Cc1onc(-c2ccccc2)c1C(=O)N[C@@H]1C(=O)N2[C@@H]1SC(C)(C)[C@@H]2C(=O)O [Oxacillin] the same measures were 0.0471, 0.0896, 0.0386 and 0.125.
In the same order, the values of `CN(C)[C@@H]1C(O)=C(C(N)=O)C(=O)[C@@]2(O)C(O)=C3C(=O)c4c(O)ccc(Cl)c4[C@@](C)(O)[C@H]3C[C@@H]12` [Clortetracycline] + Clc1ccc(COC(Cn2ccnc2)c2ccc(Cl)cc2Cl)c(Cl)c1 [Miconazole] are 0.0511, 0.0788, 0.0716 and 0.0793.
Consider `CN(C)[C@@H]1C(O)=C(C(N)=O)C(=O)[C@@]2(O)C(O)=C3C(=O)c4c(O)ccc(Cl)c4[C@@](C)(O)[C@H]3C[C@@H]12` [Clortetracycline] + Cn1nnc(-c2ccc(-c3ccc(N4C[C@H](CO)OC4=O)cc3F)cn2)n1 [Tedizolid], for which the Bliss interaction score in the assay on S. aureus DSM 20231 is -0.0502; in the assay on B. subtilis 168, -0.105; in the assay on S. aureus Newman, -0.0562; in the assay with S. pneumoniae D39V, 0.0607.
On to `CN(C)[C@@H]1C(O)=C(C(N)=O)C(=O)[C@@]2(O)C(O)=C3C(=O)c4c(O)ccc(Cl)c4[C@@](C)(O)[C@H]3C[C@@H]12` [Clortetracycline] + N[C@@H]1CONC1=O [CycloserineD], for which the Bliss interaction score is -0.118 in the assay with S. aureus DSM 20231, 0.0921 in the assay with B. subtilis 168, 0.0727 in the assay with S. aureus Newman and 0.199 in the assay with S. pneumoniae D39V.
Regarding `CN(C)[C@@H]1C(O)=C(C(N)=O)C(=O)[C@@]2(O)C(O)=C3C(=O)c4c(O)ccc(Cl)c4[C@@](C)(O)[C@H]3C[C@@H]12` [Clortetracycline] + O=C1CN(/N=C/c2ccc([N+](=O)[O-])o2)C(=O)N1 [Nitrofurantoin], the Bliss interaction score with S. aureus DSM 20231 was 0.016; with B. subtilis 168, -0.158; with S. aureus Newman, -0.0647; in the assay with S. pneumoniae D39V, -0.0355.
In the same order, the values of `CN(C)[C@@H]1C(O)=C(C(N)=O)C(=O)[C@@]2(O)C(O)=C3C(=O)c4c(O)ccc(Cl)c4[C@@](C)(O)[C@H]3C[C@@H]12` [Clortetracycline] + O=C(O[C@@H]1Cc2c(O)cc(O)cc2O[C@@H]1c1cc(O)c(O)c(O)c1)c1cc(O)c(O)c(O)c1 [EGCG] are 0.114, -0.096, -0.0462 and -0.0892.
For `CN(C)[C@@H]1C(O)=C(C(N)=O)C(=O)[C@@]2(O)C(O)=C3C(=O)c4c(O)ccc(Cl)c4[C@@](C)(O)[C@H]3C[C@@H]12` [Clortetracycline] + Oc1cc(Cl)ccc1Oc1ccc(Cl)cc1Cl [Triclosan] the same measures were -0.0936, 0.0578, 0.021 and 0.117.
For `COc1cccc2c1C(=O)c1c(O)c3c(c(O)c1C2=O)C[C@@](O)(C(=O)CO)C[C@@H]3O[C@H]1C[C@H](N)[C@H](O)[C@H](C)O1` [Doxorubicin] + CC1(C)S[C@@H]2[C@H](NC(=O)Cc3ccccc3)C(=O)N2[C@H]1C(=O)O [PenicillinG] the same measures were 0.0914, 0.0777, -0.0818 and 0.0966.
For `COc1cccc2c1C(=O)c1c(O)c3c(c(O)c1C2=O)C[C@@](O)(C(=O)CO)C[C@@H]3O[C@H]1C[C@H](N)[C@H](O)[C@H](C)O1` [Doxorubicin] + CC(=O)O[C@H]1C[C@@]2(C)[C@@H](C[C@@H](O)[C@H]3[C@@]4(C)CC[C@@H](O)[C@@H](C)[C@@H]4CC[C@@]32C)/C1=C(\CCC=C(C)C)C(=O)O [Fusidic acid], the Bliss interaction score was -0.0285 in the assay on S. aureus DSM 20231, 0.0613 with B. subtilis 168, 0.0367 in the assay on S. aureus Newman and -0.0805 in the assay on S. pneumoniae D39V.
On to `COc1cccc2c1C(=O)c1c(O)c3c(c(O)c1C2=O)C[C@@](O)(C(=O)CO)C[C@@H]3O[C@H]1C[C@H](N)[C@H](O)[C@H](C)O1` [Doxorubicin] + CC[C@H]1OC(=O)[C@H](C)C(=O)[C@H](C)[C@@H](O[C@@H]2O[C@H](C)C[C@H](N(C)C)[C@H]2O)[C@](C)(OC)C[C@@H](C)C(=O)[C@H](C)[C@H]2N(CCCCn3cnc(-c4cccnc4)c3)C(=O)O[C@]12C [Telithromycin], for which the Bliss interaction score in the assay on S. aureus DSM 20231 was -0.0292; in the assay on B. subtilis 168, 0.0872; in the assay on S. aureus Newman it was 0.0489; with S. pneumoniae D39V it was -0.0361.
